According to patent publication US20260294305A1, “METHOD FOR EX VIVO MEASURING GLOMERULAR FILTRATION RATE IN A SUBJECT” (Assistance Publique - Hôpitaux de Paris, priority 2023, published 2026):
Several values for one entry are separate records, joined by “and”; a condition that tells them apart may be missing. Equal values may be shown once. One block for each compound: values may come before it.

Legend:
[1] = more specifically by glomerular filtration; cited from earlier work
[2] = GFR measurement with iohexol clearance, chronic kidney disease patients; type: in vivo; conditions: mean ± SD, 28 CKD patients
Procedure: After a 5 mL bolus injection of iohexol (300 mg/L Omnipaque®; GE Healthcare, France), and an equilibration period (time the tracer takes to distribute in the extracellular compartment), blood and urine samples were collected over four to six consecutive clearance periods. We performed six 30-min periods after a 90-min equilibration period until July 2019, then four 40-min periods after a 120-min equilibration. The concentrations of iohexol in serum and urine were determined by high-performance liquid chromatography (HPLC) as previously described (Cavalier E et al. ([12])). Measured GFR (mGFR) was the mean of the four to six clearance-period values calculated as follows: U×V/P, where U is the concentration of iohexol in the urine collected during the period, V is the urinary flow rate during the period, and P is the serum concentration of iohexol at mid period. […] If voiding was irregular or incomplete or in case of urine loss, mGFR was calculated with iohexol plasma clearance determined from the plasma disappearance curve, with Bröchner-Mortensen correction model for the missing early compartment (Bröchner-Mortensen J. A ([15])). […]
Iohexol clearance was measured as previously described in the example 1.

[3] = GFR measurement with iohexol clearance (mGFR), living kidney donor candidates; type: in vivo
Procedure: (§1) All living kidney donor candidates investigated in Nephrology Department between July 2016 and October 2022, were eligible for inclusion. In accordance with the KDIGO guidelines (Lentine K L et al. ([11])), GFR was measured in all these individuals from iohexol clearance. […] The CT urography had to include 4 polychromatic acquisition phases (unenhanced, arterial, nephrographic, and excretory phases) with a monophasic injection of iomeprol at 350 or 400 mg of iodine per milliliter (Iomeron® 350 or 400, Bracco Imaging, Milano, Italy).
After a 5 mL bolus injection of iohexol (300 mg/L Omnipaque®; GE Healthcare, France), and an equilibration period (time the tracer takes to distribute in the extracellular compartment), blood and urine samples were collected over four to six consecutive clearance periods. We performed six 30-min periods after a 90-min equilibration period until July 2019, then four 40-min periods after a 120-min equilibration. The concentrations of iohexol in serum and urine were determined by high-performance liquid chromatography (HPLC) as previously described (Cavalier E et al. ([12])). Measured GFR (mGFR) was the mean of the four to six clearance-period values calculated as follows: U×V/P, where U is the concentration of iohexol in the urine collected during the period, V is the urinary flow rate during the period, and P is the serum concentration of iohexol at mid period. Given the negative bias of this GFR measurement method (Seegmiller J C et al. ([13]), Stehlé T et al. ([14])), the following correction was used: mGFR=1.15×iohexol urinary clearance+1.3 (Stehlé T et al. ([14])). If voiding was irregular or incomplete or in case of urine loss, mGFR was calculated with iohexol plasma clearance determined from the plasma disappearance curve, with Bröchner-Mortensen correction model for the missing early compartment (Bröchner-Mortensen J. A ([15])).

[4] = cited from earlier work
[5] = after a bolus injection; cited from earlier work
[6] = GFR measurement with iomeprol clearance assessed by CT urography (CT-mGFR), living kidney donor candidates; type: in vivo
Procedure: This is a cross-sectional study using data from kidney donor candidates who were screened in hospital between July 2016 and October 2022, with both GFR measurement by iohexol clearance, and kidney morphology assessment by CT urogaphy.
as §1
CT-mGFR was assessed by the same U×V/P calculation used to determine the urinary clearance of iohexol: the amount of iomeprol excreted through the urinary system during a given period of time was divided by the mean serum iomeprol concentration during the same period. The blood and urine concentration of iomeprol were assessed by attenuation measurement (Hounsfield Units, HU) in the different areas of interest. The time periods were derived from the acquisition time of the different phases. […] Manual segmentations of bladder, upper urinary tracts and kidneys were performed using the Advantage Windows software (Advantage Window v4.7; GE Healthcare, Buc, France), using different thresholds depending on the CT phase and then manually finalized. For non-contrast and portal venous phase: only a lower limit was set to 0 HU, in order to exclude fat pixels. For excretory phases: a specific threshold was adapted for each patient based on visual analysis in order to reduce extra-urinary pixels as much as possible. Also, the lower threshold used for upper excretory tract was used as the higher threshold for kidney segmentation to avoid overlap in segmentations. The urinary excretion rate of iomeprol between arterial and excretory phases (U×V, expressed as HU/min) was calculated from urinary excretion of iomeprol into the bladder (Uexcr-Bladder), urinary excretion of iomeprol into the upper excretory tract (calyces, pelvis, ureters) (Uexcr-tract), and urinary excretion of iomeprol into the kidney tubules (Uexcr-tubules): U×V=Uexcr-Bladder+Uexcr-tract+Uexcr-tubules. Uexcr-bladder was the volume of the bladder at the excretory phase (Bladder-Volume) multiplied by the mean CT-attenuation of the bladder at the excretory phase (HU-Bladder-excr) minus the CT-attenuation of the urine in bladder at the unenhanced phase (HU-Bladder-unenhanced), then divided by the time period between the excretory phase and the arterial phase (time period): Uexcr-Bladder=Bladder-volume×(HU-Bladder-excr−HU-Bladder-unenhanced)/time period. When the bladder was not included on the unenhanced phase, urine CT-attenuation could be measured on the nephrographic phase, the urine density at the nephrographic phase being slightly higher than at the unenhanced phase, but without clinical consequence on the CT-mGFR calculation. Uexcr-tract was determined in the same way by studying the upper excretory tract (calyces, pelvis, ureters) instead of the bladder. Uexcr-tubules was the volume of both kidneys (Kidney-volumes) multiplied by mean CT-attenuation of kidneys at the excretory phase (HU-Kidney-excr) minus mean CT-attenuation of kidneys at the unenhanced phase (HU-Kidney-unenhanced), then divided by time period: Uexcr-tubules=Kidney-volumes×(HU-Kidney-excr-HU-Kidney-unenhanced)/time period. The denominator of the U×V/P equation, was the calculated serum iomeprol concentration at the midpoint of the period between the arterial and excretory phases. At each phase, the difference between the CT attenuation of the aorta and the one at the unenhanced phase was the surrogate for the serum iomeprol concentration. […]

plasma proteins = conditions: cited from earlier work

Structure (SMILES): CN(CC(O)CO)C(=O)c1c(I)c(NC(=O)C(CO)CO)c(I)c(C(=O)N(C)CC(O)CO)c1I (stereo not shown) [iobitridol]
- Route of elimination [1]: eliminated almost exclusively by the urinary excretion

Structure (SMILES): CC(=O)N(CC(O)CN(C(C)=O)c1c(I)c(C(=O)NCC(O)CO)c(I)c(C(=O)NCC(O)CO)c1I)c1c(I)c(C(=O)NCC(O)CO)c(I)c(C(=O)NCC(O)CO)c1I (stereo not shown) [iodixanol]
- Route of elimination [1]: eliminated almost exclusively by the urinary excretion

- mGFR (iohexol clearance), maximum ([3]; max): 140.2 ml/min/1.73 m^2
- mGFR (iohexol clearance) ([3]; mean ± SD, mGFR=1.15×iohexol urinary clearance+1.3): 99.7±19.1 ml/min/1.73 m^2
- mGFR (iohexol clearance), minimum ([3]; min): 59.9 ml/min/1.73 m^2
- mGFR, ml/min, mean ± SD ([3]; study population, Table 1): 99.7 ± 19.1 mL/min
Structure (SMILES): CC(=O)N(CC(O)CO)c1c(I)c(C(=O)NCC(O)CO)c(I)c(C(=O)NCC(O)CO)c1I (stereo not shown) [iohexol]
- Iohexol clearance-measured GFR [2]: 46.0 mL/min/1.73 m2 and 46.0 ± 15.8 mL/min/1.73 m2

- Serum iomeprol concentrations assessed at the arterial phase ([6]; example patient, 0 min, aorta attenuation minus unenhanced): 210.2 HU
- Serum iomeprol concentrations assessed at the nephrographic phase ([6]; example patient, 0.77 min, aorta attenuation minus unenhanced): 88.3 HU
- Serum iomeprol concentrations assessed at the excretory phase ([6]; example patient, 9.47 min, aorta attenuation minus unenhanced): 46.8 HU
- Ln (iomeprol mid-period) ([6]; example patient, mid-period between arterial and excretory phases): 4.396
- CT-mGFR, maximum ([6]; max): 174.0 ml/min/1.73 m^2
- Mean CT-mGFR (iomeprol clearance assessed by CT urography) ([6]; mean ± SD, n=75 living kidney donor candidates): 100.9±19.5 ml/min/1.73 m^2
- CT-mGFR, minimum ([6]; min): 60.8 ml/min/1.73 m^2
Structure (SMILES): CN(C(=O)CO)c1c(I)c(C(=O)NCC(O)CO)c(I)c(C(=O)NCC(O)CO)c1I (stereo not shown) [iomeprol]
- Water solubility [4]: hydrosoluble
- Correlation between its clearance and that of inulin [5]: very good correlation
- Extra-renal clearance [5]: negligible
- Plasma concentration decline [5]: declined biexponentially
- Plasma protein binding (plasma proteins): does not bind measurably to plasma proteins
